Measured values reported in patent US20120202690A1, “HERBICIDAL COMPOUNDS” (SYNGENTA LIMITED, priority 2009, published 2012).

Tests used:
Type in all cases: in vivo
[1] = test system: Amaranthus retroflexus (AMARE); assay: Pre-emergence biological efficacy, glasshouse, 1000 g/ha, evaluated after 13 days (100=total damage to plant; 0=no damage to plant); conditions: Amaranthus retroflexus, 312 h, rate 1,000 g/ha, read-out: Percentage damage caused to weed species, pre-emergence, AMARE
Method in brief: (§1)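 Pot-sown in standard soil; glasshouse 24/16° C. (day/night), 14 h light, 65% humidity; watered twice daily.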

[2] = test system: Echinochloa crus-galli (ECHCG); assay: as above; conditions: Echinochloa crus-galli, 312 h, rate 1,000 g/ha, read-out: Percentage damage caused to weed species, pre-emergence, ECHCG
Method in brief: as §1

[3] = test system: Ipomoea hederaceae (IPOHE); assay: as above; conditions: Ipomoea, 312 h, rate 1,000 g/ha, read-out: Percentage damage caused to weed species, pre-emergence, IPOHE
Method in brief: as §1

Setaria faberi (SETFA) [4] = assay: as above; conditions: Setaria faberi, 312 h, rate 1,000 g/ha, read-out: Percentage damage caused to weed species, pre-emergence, SETFA
Method in brief: as §1

[5] = test system: Alopecurus myosuroides (ALOMY); assay: as above; conditions: Alopecurus myosuroides, 312 h, rate 1,000 g/ha, read-out: Percentage damage caused to weed species, pre-emergence, ALOMY
Method in brief: as §1

Solanum nigrum (SOLNI) [6] = assay: as above; conditions: Solanum nigrum, 312 h, rate 1,000 g/ha, read-out: Percentage damage caused to weed species, pre-emergence, SOLNI
Method in brief: as §1

[7] = test system: Amaranthus retroflexus (AMARE); assay: Post-emergence biological efficacy, glasshouse, 500 or 1000 g/ha, evaluated after 13 days (100=total damage to plant; 0=no damage to plant); conditions: Amaranthus retroflexus, 312 h, rate 1,000 g/ha, read-out: Percentage damage caused to weed species, post-emergence, AMARE
Method in brief: (§2)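 Standard soil, potted from seed; post-emergence treatment; glasshouse 24/16° C. (day/night), 14 h light, 65% humidity; watering twice daily.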

[8] = test system: Echinochloa crusgaffi (ECHCG); assay: as above; conditions: Echinochloa, 312 h, rate 1,000 g/ha, read-out: Percentage damage caused to weed species, post-emergence, ECHCG
Method in brief: as §2

[9] = test system: Ipomoea hederaceae (IPOHE); assay: as above; conditions: Ipomoea, 312 h, rate 1,000 g/ha, read-out: Percentage damage caused to weed species, post-emergence, IPOHE
Method in brief: as §2

Setaria faberi (SETFA) [10] = assay: as above; conditions: Setaria faberi, 312 h, rate 1,000 g/ha, read-out: Percentage damage caused to weed species, post-emergence, SETFA
Method in brief: as §2

[11] = test system: Alopecurus myosuroides (ALOMY); assay: as above; conditions: Alopecurus myosuroides, 312 h, rate 1,000 g/ha, read-out: Percentage damage caused to weed species, post-emergence, ALOMY
Method in brief: as §2

Solanum nigrum (SOLNI) [12] = assay: as above; conditions: Solanum nigrum, 312 h, rate 1,000 g/ha, read-out: Percentage damage caused to weed species, post-emergence, SOLNI
Method in brief: as §2

Row | SMILES | pest or weed control at 1000 g/ha [1] [%] | pest or weed control at 1000 g/ha [2] [%] | pest or weed control at 1000 g/ha [3] [%] | pest or weed control at 1000 g/ha (Setaria faberi (SETFA) [4]) [%] | pest or weed control at 1000 g/ha [5] [%] | pest or weed control at 1000 g/ha (Solanum nigrum (SOLNI) [6]) [%] | pest or weed control at 1000 g/ha [7] [%] | pest or weed control at 1000 g/ha [8] [%] | pest or weed control at 1000 g/ha [9] [%] | pest or weed control at 1000 g/ha (Setaria faberi (SETFA) [10]) [%] | pest or weed control at 1000 g/ha [11] [%] | pest or weed control at 1000 g/ha (Solanum nigrum (SOLNI) [12]) [%]
1 | COC(=O)c1nc(Cl)nc2[nH]c(C)cc12 [Compound 1-126, 2-Chloro-4-methoxy-carbonyl-6-methyl-7H-pyrrolo[2,3-d]pyrimidine] | 0 | 0 | 0 | 0 | 0 | 0 | 0 | 0 | 0 | 0 | 0 | 0
2 | COC(=O)c1nc(-c2ccc(Cl)c(F)c2)nc2[nH]cc(C)c12 [Compound 1-20, 2-(4-Chloro-3-fluorophenyl)-4-methoxycarbonyl-5-methyl-7H-pyrrolo[2,3-d]pyrimidine] | 50 | 0 | 0 | 0 | 0 | 0 | 70 | 0 | 60 | 0 | 0 | 70
3 | COc1ccc(Cn2cc(C)c3c(C(=O)O)nc(-c4ccc(Cl)c(OC)c4F)nc32)cc1 [Compound 10-63, 4-Carboxy-2-(4-chloro-2-fluoro-3-methoxyphenyl)-7-(4-methoxyphenyl-methyl)-5-methyl-7H-pyrrolo[2,3-d]pyrimidine] | 0 | 0 | 0 | 0 | 0 | 0 | 10 | 0 | 20 | 0 | 0 | 20
4 | COC(=O)c1nc(-c2ccc(Cl)c(OC)c2F)cc2c1ccn2Cc1ccco1 [Compound 32-62, 6-(4-Chloro-2-fluoro-3-methoxyphenyl)-1-(2-furanyl-methyl)-4-methoxycarbonyl-1H-pyrrolo[3,2-c]pyridine] | 80 | 30 | 20 | 20 | 30 | 80 | 80 | 50 | 70 | 40 | 10 | 80
5 | COC(=O)c1nc(-c2ccc(Cl)c(F)c2)nc2c1ccn2Cc1ccco1 [Compound 11-18, 2-(4-Chloro-3-fluorophenyl)-7-(2-furanyl-methyl)-4-methoxycarbonyl-7H-pyrrolo[2,3-d]pyrimidine] | 0 | 0 | 0 | 0 | 0 | 0 | 0 | 0 | 20 | 0 | 0 | 50
6 | Cc1cc2c(C(=O)O)nc(-c3ccc(Cl)c(F)c3)nc2n1CC1CC1 [Compound 5-21, 4-Carboxy-2-(4-chloro-3-fluorophenyl)-7-cyclopropylmethyl-6-methyl-7H-pyrrolo[2,3-d]pyrimidine] | 100 | 0 | 30 | 10 | 10 | 40 | 70 | 10 | 30 | 10 | 10 | 50
7 | COC(=O)c1nc(-c2ccc(Cl)c(F)c2)nc2c1ccn2CC1CC1 [Compound 5-18, 2-(4-Chloro-3-fluorophenyl)-7-cyclopropylmethyl-4-methoxycarbonyl-7H-pyrrolo[2,3-d]pyrimidine] | 0 | 0 | 0 | 0 | 0 | 0 | 0 | 0 | 0 | 0 | 0 | 20
8 | COC(=O)c1nc(-c2ccc(Cl)c(OC)c2F)nc2c1c(C)cn2Cc1ccccc1 [Compound 6-64, 2-(4-Chloro-2-fluoro-3-methoxyphenyl)-4-methoxycarbonyl-5-methyl-7-phenylmethyl-7H-pyrrolo[2,3-d]pyrimidine] | 50 | 0 | 30 | 0 | 0 | 50 | 20 | 0 | 50 | 0 | 0 | 70
9 | COC(=O)c1nc(-c2ccc(Cl)c(OC)c2F)cc2c1c(C)cn2S(=O)(=O)c1ccc(C)cc1 [Compound 40-64, 6-(4-Chloro-2-fluoro-3-methoxyphenyl)-4-methoxycarbonyl-3-methyl-1-(4-methylphenyl-sulphonyl)-1H-pyrrolo[3,2-c]pyridine] | 0 | 10 | 0 | 10 | 0 | 40 | 0 | 0 | 50 | 0 | 0 | 60
10 | COC(=O)c1nc(-c2ccc(Cl)c(OC)c2F)nc2c1c(C)cn2S(C)(=O)=O [Compound 18-64, 2-(4-chloro-2-fluoro-3-methoxyphenyl)-4-methoxycarbonyl-5-methyl-7-methylsulphonyl-7H-pyrrolo[2,3-d]pyrimidine] | 0 | 0 | 0 | 0 | 0 | 0 | 20 | 10 | 40 | 30 | 10 | 40
11 | COCCOCCOC(=O)c1nc(-c2ccc(Cl)c(OC)c2F)nc2[nH]cc(C)c12 [Compound 1-85, 2-(4-Chloro-2-fluoro-3-methoxyphenyl)-4-{2-[(2-methoxy)-ethoxy]-ethoxycarbonyl}-5-methyl-7H-pyrrolo[2,3-d]pyrimidine] | 100 | 0 | 10 | 0 | 20 | 70 | 100 | 60 | 40 | 40 | 10 | 90
